This is an account of results in article PMC8344243, “Design, synthesis, docking, ADMET studies, and anticancer evaluation of new 3-methylquinoxaline derivatives as VEGFR-2 inhibitors and apoptosis inducers” (Journal of Enzyme Inhibition and Medicinal Chemistry, 2021).

One data set has as its system HepG2. The data set is described as follows: MTT anti-proliferative assay, HepG2. Format: cell-based. Conditions: Homo sapiens, read-out: Cytotoxicity on cancer cells IC50, HepG2. The procedure: (§1) In vitro cytotoxic activities of the synthesised compounds were evaluated against two different cancer cell lines; breast cancer (MCF-7) and hepatocellular carcinoma (HepG2) using standard MTT colorimetric assay as described by Mosmann[78]^,[79]. […].
(§2) The in vitro antiproliferative activities were assessed using the MTT assay protocol[78]^,[79]^,[95]. As shown in Supplementary Data.

The next data set deals with MCF-7. Put plainly: MTT anti-proliferative assay, MCF-7. Format: cell-based. The conditions noted are these: for IC50: Homo sapiens, MCF7, MCF-7, MTT assay, read-out: Cytotoxicity on cancer cells IC50, MCF-7. Here is the method: as §1, §2
In the next data set the target is T1, human VEGFR-2 (Homo sapiens, UniProt P35968).
T1 construct: endogenous in cells; host or cells: HepG2
T1 sequence (P35968 20-1356): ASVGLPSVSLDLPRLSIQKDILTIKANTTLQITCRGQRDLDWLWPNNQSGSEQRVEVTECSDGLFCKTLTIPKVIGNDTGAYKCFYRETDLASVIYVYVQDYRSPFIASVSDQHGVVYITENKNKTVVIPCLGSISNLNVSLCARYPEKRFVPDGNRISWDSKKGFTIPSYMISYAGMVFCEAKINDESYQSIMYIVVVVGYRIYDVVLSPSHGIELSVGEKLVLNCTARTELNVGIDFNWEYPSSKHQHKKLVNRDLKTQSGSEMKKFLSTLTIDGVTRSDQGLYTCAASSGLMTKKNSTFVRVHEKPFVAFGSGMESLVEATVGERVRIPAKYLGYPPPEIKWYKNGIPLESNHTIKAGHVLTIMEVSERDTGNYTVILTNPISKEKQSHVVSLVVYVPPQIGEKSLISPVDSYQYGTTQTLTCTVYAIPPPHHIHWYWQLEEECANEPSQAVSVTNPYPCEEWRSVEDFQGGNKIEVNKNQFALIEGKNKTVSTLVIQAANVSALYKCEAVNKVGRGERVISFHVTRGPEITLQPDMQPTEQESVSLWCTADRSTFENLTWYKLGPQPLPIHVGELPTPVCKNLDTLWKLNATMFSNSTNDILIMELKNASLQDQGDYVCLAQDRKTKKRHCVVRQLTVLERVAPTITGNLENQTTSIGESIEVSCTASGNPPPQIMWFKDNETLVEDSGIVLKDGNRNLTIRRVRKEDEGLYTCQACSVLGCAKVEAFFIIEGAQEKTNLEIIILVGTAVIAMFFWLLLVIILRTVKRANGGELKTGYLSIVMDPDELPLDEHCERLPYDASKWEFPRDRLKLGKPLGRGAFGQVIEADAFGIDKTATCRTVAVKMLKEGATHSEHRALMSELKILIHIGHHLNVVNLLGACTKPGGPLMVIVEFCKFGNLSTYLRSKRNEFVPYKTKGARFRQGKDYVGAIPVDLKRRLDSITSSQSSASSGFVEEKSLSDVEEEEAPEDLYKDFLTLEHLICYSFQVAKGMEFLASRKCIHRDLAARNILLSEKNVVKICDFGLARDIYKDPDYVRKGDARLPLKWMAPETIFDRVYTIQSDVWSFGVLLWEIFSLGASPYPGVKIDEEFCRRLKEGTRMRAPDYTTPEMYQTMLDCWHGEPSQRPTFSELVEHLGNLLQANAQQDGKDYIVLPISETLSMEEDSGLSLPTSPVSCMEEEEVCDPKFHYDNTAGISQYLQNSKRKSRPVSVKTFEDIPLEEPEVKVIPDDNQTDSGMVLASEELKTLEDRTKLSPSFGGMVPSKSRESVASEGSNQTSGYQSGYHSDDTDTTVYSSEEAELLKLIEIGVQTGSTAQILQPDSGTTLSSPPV
The data set is described as follows: In vitro VEGFR-2 enzyme inhibition assay (ELISA kit, HepG2 cell line). In kind it is biochemical. The conditions noted are these: human VEGFR-2 in HepG2 cell line. The source says:
The synthesised compounds were estimated for their in vitro inhibition on human VEGFR-2 in HepG2 cell line; using ELISA kit[96] as described in Supplementary Data.
In general terms: In an ELISA, binding on a coated surface is turned into a signal by an enzyme label.

A short description of data set [1]: Cytotoxicity against primary rat hepatocytes (normal hepatic cells). Format: cell-based. Conditions: rat, primary rat hepatocytes. From the text:
(§3) It is of high importance for anticancer agents to have minimum side effects on normal cells. […].

The test system of a further data set is primary rat hepatocytes. The description is as above. Format: cell-based. The conditions noted are these: HepG2 vs primary rat hepatocytes.
Source text: as §3

Molecules are shown by their SMILES.

The term IC50 denotes the concentration that gives 50% inhibition. As a reminder, the melting point is the temperature, or range, at which the solid turns liquid.

In the case of `Cc1nc2ccccc2n(CC(=O)Nc2ccc(C(=O)NCCc3ccccc3)cc2)c1=O` [Compound 27b, 4-(2-(3-Methyl-2-oxoquinoxalin-1(2H)-yl)acetamido)-N-phenethylbenzamide], the melting point lay in the range of 283 to 285 °C. The IC50 with HepG2 turned out to be 41.5 µM. In the data set on MCF-7, the IC50 came to 62.3 µM and the “Activity against the MCF-7 cell line (in words)” value (“Activity … (in words)” for short) was “inactive”. The IC50 against human VEGFR-2 came to 0.0225 µM.
On the same counts, the results for `COc1cccc(OC)c1NC(=O)c1ccc(NC(=O)Cn2c(=O)c(C)nc3ccccc32)cc1` [Compound 27c, N-(2,6-Dimethoxyphenyl)-4-(2-(3-methyl-2-oxoquinoxalin-1(2H)-yl)acetamido)-benzamide] are greater than 300 °C, 42.6 µM, 57.2 µM, “inactive” and 0.0116 µM.
Consider `Cc1cccc(C)c1NC(=O)c1ccc(NC(=O)Cn2c(=O)c(C)nc3ccccc32)cc1` [Compound 27d, N-(2,6-Dimethylphenyl)-4-(2-(3-methyl-2-oxoquinoxalin-1(2H)-yl)acetamido)-benzamide], for which the melting point was in the range of 240 to 242 °C. Moreover, in the data set on HepG2, the IC50 was determined as 24.1 µM. In addition, the IC50 in the data set on MCF-7 turned out to be 30.7 µM. This compound showed an IC50 against human VEGFR-2 of 0.0218 µM.
On the same counts, the results for `Cc1nc2ccccc2n(CC(=O)Nc2ccc(C(=O)Nc3ccc([N+](=O)[O-])cc3)cc2)c1=O` [Compound 27e, 4-(2-(3-Methyl-2-oxoquinoxalin-1(2H)-yl)acetamido)-N-(4-nitrophenyl)benzamide] are greater than 300 °C, 27.5 µM, 42.3 µM and 0.0217 µM.
On the same counts, the results for `Cc1nc2ccccc2n(CC(=O)Nc2ccc(C(=O)Nc3ccc(Cl)cn3)cc2)c1=O` [Compound 27f, N-(5-Chloropyridin-2-yl)-4-(2-(3-methyl-2-oxoquinoxalin-1(2H)-yl)acetamido)-benzamide] are greater than 300 °C, 19.7 µM, 22.7 µM and 0.0107 µM.
Take `Cc1nc2ccccc2n(CC(=O)Nc2ccc(C(=O)NNC(=O)c3ccc([N+](=O)[O-])cc3)cc2)c1=O` [Compound 28, 2-(3-Methyl-2-oxoquinoxalin-1(2H)-yl)-N-(4-(2-(4-nitrobenzoyl)hydrazine-1-carbonyl)phenyl)acetamide]: the values for the IC50 in the data set with HepG2, with MCF-7 and against human VEGFR-2 were 11.7 µM, 17.2 µM and 0.0042 µM, respectively.
On the same counts, the results for `Cc1nc2ccccc2n(CC(=O)Nc2ccc(C(=O)NNc3ccccc3)cc2)c1=O` [Compound 29, 2-(3-Methyl-2-oxoquinoxalin-1(2H)-yl)-N-(4-(2-phenylhydrazine-1-carbonyl)phenyl) acetamide] are 17.5 µM, 23.5 µM and 0.0098 µM.
In turn, `Cc1nc2ccccc2nc1SCC(=O)Nc1ccc(C(=O)NC(C)(C)C)cc1` [Compound 30a, N-(tert-Butyl)-4-(2-((3-methylquinoxalin-2-yl)thio)acetamido)benzamide] registered a melting point of 231 to 233 °C. For the same compound, the IC50 in the data set on HepG2 is 43.7 µM. In addition, in the data set on MCF-7, the IC50 came to 61.9 µM and the “Activity … (in words)” value was “inactive”. Further, the IC50 against human VEGFR-2 came to 0.0298 µM.
As to `Cc1nc2ccccc2nc1SCC(=O)Nc1ccc(C(=O)NC2CCCCC2)cc1` [Compound 30b, N-Cyclohexyl-4-(2-((3-methylquinoxalin-2-yl)thio)acetamido)benzamide], the IC50 was found to be 34.2 µM in the data set on HepG2, 43.8 µM in the data set with MCF-7 and 0.0087 µM at human VEGFR-2.
`Cc1nc2ccccc2nc1SCC(=O)Nc1ccc(C(=O)NCc2ccccc2)cc1` [Compound 30c, N-benzyl-4-(2-((3-methylquinoxalin-2-yl)thio)acetamido)benzamide] showed a melting point of 235 to 237 °C. Besides, in the data set on HepG2, the IC50 was found to be 34.1 µM. The IC50 in the data set on MCF-7 is 41.9 µM. On human VEGFR-2, this compound displayed an IC50 of 0.0138 µM.
On the same counts, the results for `Cc1nc2ccccc2nc1SCC(=O)Nc1ccc(C(=O)NCCc2ccccc2)cc1` [Compound 30d, 4-(2-((3-Methylquinoxalin-2-yl)thio)acetamido)-N-phenethylbenzamide] are 220 to 222 °C, 32.4 µM, 42.7 µM and 0.0157 µM.
Regarding `Cc1nc2ccccc2nc1SCC(=O)Nc1ccc(C(=O)Nc2ccccc2)cc1` [Compound 30e, 4-(2-((3-Methylquinoxalin-2-yl)thio)acetamido)-N-phenylbenzamide], the concentration for half-maximal inhibition (IC50) is 24.3 µM with HepG2, 31.3 µM with MCF-7 and 0.0274 µM against human VEGFR-2.
For the compound `COc1cccc(OC)c1NC(=O)c1ccc(NC(=O)CSc2nc3ccccc3nc2C)cc1` [Compound 30g, N-(2,6-Dimethoxyphenyl)-4-(2-((3-methylquinoxalin-2-yl)thio)acetamido) benzamide], the IC50 with HepG2 amounted to 40.8 µM; in the data set with MCF-7, 61.7 µM; against human VEGFR-2 it was 0.0389 µM. Besides, the “Activity … (in words)” value in the data set with MCF-7 was “inactive”.
For the compound `Cc1nc2ccccc2nc1SCC(=O)Nc1ccc(C(=O)Nc2ccc([N+](=O)[O-])cc2)cc1` [Compound 30h, 4-(2-((3-Methylquinoxalin-2-yl)thio)acetamido)-N-(4-nitrophenyl)benzamide], the melting point lay within 200 to 202 °C. In the data set on HepG2, the 50% inhibitory concentration (IC50) is 17.7 µM. The IC50 with MCF-7 was 21.3 µM. Further, at human VEGFR-2, the IC50 is 0.0118 µM.
`Cc1nc2ccccc2nc1SCC(=O)Nc1ccc(C(=O)Nc2ccc(Cl)cn2)cc1` [Compound 30i, N-(5-Chloropyridin-2-yl)-4-(2-((3-methylquinoxalin-2-yl)thio)acetamido)benzamide]: the 50% inhibitory concentration (IC50) in the data set on HepG2 turned out to be 12.7 µM; in the data set with MCF-7, 17.2 µM; against human VEGFR-2, 0.0061 µM.
On the same counts, the results for `Cc1nc2ccccc2nc1SCC(=O)Nc1ccc(C(=O)NNC(=O)c2ccccc2)cc1` [Compound 31a, N-(4-(2-benzoylhydrazine-1-carbonyl)phenyl)-2-((3-methylquinoxalin-2-yl)thio) acetamide] are 18.7 µM, 23.1 µM and 0.0107 µM.
With `Cc1nc2ccccc2nc1SCC(=O)Nc1ccc(C(=O)NNC(=O)c2ccc([N+](=O)[O-])cc2)cc1` [Compound 31b, 2-((3-Methylquinoxalin-2-yl)thio)-N-(4-(2-(4-nitrobenzoyl)hydrazine-1-carbonyl)phenyl) acetamide], the melting point was in the range of 196 to 198 °C. The IC50 with HepG2 turned out to be 13.7 µM. Also, in the data set on MCF-7, the IC50 worked out at 19.2 µM. For the same compound, on human VEGFR-2, the IC50 worked out at 0.0051 µM.
Consider `Cc1nc2ccccc2nc1SCC(=O)Nc1ccc(C(=O)NNc2ccccc2)cc1` [Compound 32, 2-((3-Methylquinoxalin-2-yl)thio)-N-(4-(2-phenylhydrazine-1-carbonyl)phenyl) acetamide], for which the IC50 in the data set with HepG2 was found to be 41.3 µM; in the data set on MCF-7, 59.5 µM; against human VEGFR-2, 0.0238 µM. Moreover, the “Activity … (in words)” value with MCF-7 is “inactive”.
Consider `CNC(=O)c1cc(Oc2ccc(NC(=O)Nc3ccc(Cl)c(C(F)(F)F)c3)cc2)ccn1` [Sorafenib, reference compound], for which the results for the IC50 (in the data set with HepG2; in data set [1]) were 2.17 µM and 17.3 µM, respectively. Further, the “Cytotoxic activity against cancer HepG2 cell line more than against normal hepatic cells” value in the data set on primary rat hepatocytes was determined as 8 fold.
